Test results as given in patent US9440957B2, “Compounds and compositions for modulating EGFR Activity” (Novartis AG, priority 2012, dated 2016).

How the values were obtained:
Assay type in all cases: cell-based
[1] = target: human EGFR WT (NIH/3T3 cells, EGF-induced) (Homo sapiens, UniProt P00533); test: EGFR target modulation in engineered NIH/3T3 cell lines (phospho-EGFR Y1068 AlphaLISA), EGFR WT; settings: engineered NIH/3T3 cells, read-out: NIH3T3 IC50 (μM) EGFR (WT)
Procedure, shortened: (§1)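 Engineered NIH/3T3 cells were plated overnight, then exposed to a 12-point 1:3 compound series (from a 10 μM stock) for 3 hours at 37 °C. WT-expressing cells alone were stimulated with 50 ng/ml EGF for 5 minutes before lysis. IC50s came from non-linear fits of AlphaLISA signal.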

HaCaT (EGFR WT) = HaCaT (EGFR WT) (Homo sapiens, UniProt P00533); test: EGFR target modulation in HaCaT (EGFR-WT) cell line (phospho-EGFR Y1173 ELISA); settings: value in parentheses
Protocol: EGFR Target Modulation in HaCaT (EGFR-WT) Cell Line Tissue Culture. […] The serial diluted compounds were transferred to the plate containing cells by using a 50 nl Pin Head device (Perkin Elmer) and the cells were placed back in the incubator for 3 hours. […] Phospho-EGFR ([…]) ELISA. Solid white high-binding ELISA plates (Greiner #781074) were coated with 5 ug/ml anti-EGFR capture antibody (R&D Systems #AF231) overnight in 50 mM carbonate/bicarbonate pH 9.5 buffer. […] Wash steps were carried out with a Bio-Tek ELx405 SelectTM using 4 cycles of 100 ul TBS-T (20 mM Tris, 137 mM NaCl, 0.05% Tween-20) per well. […] Lysis was allowed to occur for 20 minutes on ice. A 25 ul aliquot was added to each well of the blocked ELISA plate and incubated overnight at 4° C. with gentle shaking. […] After washing, 1:2,000 anti-rabbit-HRP (Cell Signaling #7074) in 0.2% BSA/TBS-T was added and incubated for 1 hour at room temperature. Chemiluminescent detection was carried out with SuperSignal ELISA Pico substrate (ThermoScientific #37069). Signal was read on EnVision plate reader using built-in UltraLUM setting. Data Analysis. Control cells treated with EGF were set to 100% maximum response. […] With these parameters, the IC50's for each compound in each cell line was calculated using non-linear curve fitting analysis.

[2] = target: human EGFR L858R/T790M (NIH/3T3 cells) (Homo sapiens, UniProt P00533, L858R/T790M); test: EGFR target modulation in engineered NIH/3T3 cell lines (phospho-EGFR Y1068 AlphaLISA), EGFR L858R/T790M; settings: engineered NIH/3T3 cells, read-out: NIH3T3 IC50 (μM) EGFR (L858R/T790M)
Procedure, shortened: as §1

H1975 (EGFR L858/T790M) = H1975 (EGFR L858/T790M) (Homo sapiens, UniProt P00533, L858R/T790M); test: EGFR target modulation in H1975 cell line (phospho-EGFR Y1173 ELISA)
Procedure, shortened: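 Cells grown in 10% FBS/RPMI, plated overnight at 37 °C, then treated with serially diluted compounds for 3 h. Lysates were analysed by sandwich ELISA (anti-EGFR capture, chemiluminescent readout).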

Chain of HaCaT (EGFR WT) (P00533 25-1210): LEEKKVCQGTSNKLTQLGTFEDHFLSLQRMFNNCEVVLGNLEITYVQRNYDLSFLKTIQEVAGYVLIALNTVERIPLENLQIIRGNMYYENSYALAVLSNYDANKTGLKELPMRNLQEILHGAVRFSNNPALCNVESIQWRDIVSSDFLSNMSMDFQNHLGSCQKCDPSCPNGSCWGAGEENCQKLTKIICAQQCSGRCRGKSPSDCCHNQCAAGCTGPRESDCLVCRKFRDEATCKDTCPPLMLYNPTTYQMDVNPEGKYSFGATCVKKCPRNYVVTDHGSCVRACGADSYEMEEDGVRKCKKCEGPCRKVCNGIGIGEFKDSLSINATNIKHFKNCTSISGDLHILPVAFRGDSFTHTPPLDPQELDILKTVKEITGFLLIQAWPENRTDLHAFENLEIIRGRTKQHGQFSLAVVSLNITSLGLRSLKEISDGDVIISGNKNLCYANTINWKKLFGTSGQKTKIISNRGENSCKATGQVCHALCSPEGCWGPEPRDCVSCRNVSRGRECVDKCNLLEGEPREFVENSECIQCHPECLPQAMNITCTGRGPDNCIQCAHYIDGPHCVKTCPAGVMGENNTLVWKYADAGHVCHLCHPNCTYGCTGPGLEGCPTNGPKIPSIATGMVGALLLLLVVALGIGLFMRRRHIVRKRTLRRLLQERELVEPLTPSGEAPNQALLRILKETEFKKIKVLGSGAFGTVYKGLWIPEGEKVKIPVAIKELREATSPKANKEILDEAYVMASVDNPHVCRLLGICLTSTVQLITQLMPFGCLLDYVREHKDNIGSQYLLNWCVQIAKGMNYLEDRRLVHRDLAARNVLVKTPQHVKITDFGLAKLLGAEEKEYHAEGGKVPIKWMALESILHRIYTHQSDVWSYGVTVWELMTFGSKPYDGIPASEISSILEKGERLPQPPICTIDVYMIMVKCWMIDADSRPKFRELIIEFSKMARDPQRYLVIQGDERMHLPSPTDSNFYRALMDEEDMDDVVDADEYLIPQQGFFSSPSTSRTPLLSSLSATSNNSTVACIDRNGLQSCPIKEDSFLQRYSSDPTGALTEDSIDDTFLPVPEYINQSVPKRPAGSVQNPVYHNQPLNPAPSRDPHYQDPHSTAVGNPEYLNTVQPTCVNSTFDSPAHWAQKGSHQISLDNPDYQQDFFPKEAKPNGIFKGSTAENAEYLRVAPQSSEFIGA
Chain of human EGFR WT (NIH/3T3 cells, EGF-induced) (P00533 25-1210): as above
Chain of H1975 (EGFR L858/T790M) (P00533 25-1210 T790M/L858R): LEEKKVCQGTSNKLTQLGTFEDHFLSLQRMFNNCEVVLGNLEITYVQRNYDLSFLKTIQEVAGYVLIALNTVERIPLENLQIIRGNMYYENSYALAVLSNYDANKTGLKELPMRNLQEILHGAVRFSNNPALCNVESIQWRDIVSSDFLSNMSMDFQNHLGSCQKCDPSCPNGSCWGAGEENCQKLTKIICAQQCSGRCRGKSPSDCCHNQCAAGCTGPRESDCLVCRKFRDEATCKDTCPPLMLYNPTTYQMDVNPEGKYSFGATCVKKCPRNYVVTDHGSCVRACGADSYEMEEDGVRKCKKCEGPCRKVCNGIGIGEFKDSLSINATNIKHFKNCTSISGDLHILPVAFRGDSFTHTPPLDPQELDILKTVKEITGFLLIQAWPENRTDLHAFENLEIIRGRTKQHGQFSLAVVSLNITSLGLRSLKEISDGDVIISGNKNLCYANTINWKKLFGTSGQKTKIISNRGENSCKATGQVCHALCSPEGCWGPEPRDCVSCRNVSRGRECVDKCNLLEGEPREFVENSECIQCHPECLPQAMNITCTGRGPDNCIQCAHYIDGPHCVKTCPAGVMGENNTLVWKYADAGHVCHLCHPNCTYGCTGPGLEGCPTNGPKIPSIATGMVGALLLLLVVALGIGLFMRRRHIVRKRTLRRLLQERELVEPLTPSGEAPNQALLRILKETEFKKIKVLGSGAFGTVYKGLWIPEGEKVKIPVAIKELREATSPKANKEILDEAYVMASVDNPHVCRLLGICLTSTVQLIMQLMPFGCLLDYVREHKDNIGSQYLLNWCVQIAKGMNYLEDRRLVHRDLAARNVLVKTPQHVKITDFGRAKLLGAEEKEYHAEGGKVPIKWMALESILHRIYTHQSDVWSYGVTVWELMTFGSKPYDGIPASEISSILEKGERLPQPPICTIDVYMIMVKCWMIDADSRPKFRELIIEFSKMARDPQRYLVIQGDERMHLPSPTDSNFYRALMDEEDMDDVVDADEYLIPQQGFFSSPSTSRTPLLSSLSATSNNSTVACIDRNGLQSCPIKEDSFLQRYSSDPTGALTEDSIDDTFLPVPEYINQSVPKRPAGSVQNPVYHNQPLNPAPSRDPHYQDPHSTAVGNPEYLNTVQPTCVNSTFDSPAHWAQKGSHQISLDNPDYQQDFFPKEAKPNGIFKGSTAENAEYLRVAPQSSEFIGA
Chain of human EGFR L858R/T790M (NIH/3T3 cells) (P00533 25-1210 T790M/L858R): as above

Structure (SMILES)	IC50 [1]	IC50 (HaCaT (EGFR WT))	IC50 [2]	IC50 (H1975 (EGFR L858/T790M))
C=CC(=O)N1CCCC[C@@H](n2c(NC(=O)c3ccnc(C)c3)nc3cc(CN4CC[C@H](OC)C4)cc(C)c32)C1 [Example 17-149]	0.015 µM	48 nM	< 0.001 µM	< 1 nM
C=CC(=O)N1CCCC[C@@H](n2c(NC(=O)c3ccnc(C)c3)nc3cc(CN4CC[C@@H](OC)C4)cc(C)c32)C1 [Example 17-150]	0.042 µM	59 nM	0.001 µM	2 nM
C=CC(=O)N1CCCC[C@@H](n2c(NC(=O)c3ccnc(C)c3)nc3cc(CN4CC(OC)C4)cc(C)c32)C1 [Example 17-154]	0.01 µM	38 nM	0.001 µM	< 1 nM

The remaining lines, values ahead:

IC50 [1]	IC50 (HaCaT (EGFR WT))	IC50 [2]	IC50 (H1975 (EGFR L858/T790M))	Structure (SMILES)
0.025 µM	44 nM	< 0.001 µM	< 1 nM	C=CC(=O)N1CCCC[C@@H](n2c(NC(=O)c3ccnc(C)c3)nc3cc(CN4CC[C@H](F)C4)cc(C)c32)C1 [Example 17-147]
0.083 µM	52 nM	0.002 µM	1 nM	C=CC(=O)N1CCCC[C@@H](n2c(NC(=O)c3ccnc(C)c3)nc3cc(CN4CC[C@@H](F)C4)cc(C)c32)C1 [Example 17-148]
0.032 µM	46 nM	0.001 µM	1 nM	C=CC(=O)N1CCCC[C@@H](n2c(NC(=O)c3ccnc(C)c3)nc3cc(CN4CC(F)C4)cc(C)c32)C1 [Example 17-152]
